Reference: article PMC3961306, “Comparison of the Cancer Gene Targeting and Biochemical Selectivities of All Targeted Kinase Inhibitors Approved for Clinical Use” (PLoS ONE, 2014)
Read-outs that look alike come from different tables or passages of the source.

Columns and labels:
Assay in all cases: Kinase profiling in a biochemical assay panel (mobility shift assays and ELISA), %-inhibition at 1 μM; selectivity entropy
[1] = molecular target: panel of more than 300 wild-type and mutant kinases (313 kinase panel) (Homo sapiens, UniProt O60674)
Sequence of panel of more than 300 wild-type and mutant kinases (313 kinase panel) (Homo sapiens, UniProt O60674) (O60674 whole entry, stated change not applied): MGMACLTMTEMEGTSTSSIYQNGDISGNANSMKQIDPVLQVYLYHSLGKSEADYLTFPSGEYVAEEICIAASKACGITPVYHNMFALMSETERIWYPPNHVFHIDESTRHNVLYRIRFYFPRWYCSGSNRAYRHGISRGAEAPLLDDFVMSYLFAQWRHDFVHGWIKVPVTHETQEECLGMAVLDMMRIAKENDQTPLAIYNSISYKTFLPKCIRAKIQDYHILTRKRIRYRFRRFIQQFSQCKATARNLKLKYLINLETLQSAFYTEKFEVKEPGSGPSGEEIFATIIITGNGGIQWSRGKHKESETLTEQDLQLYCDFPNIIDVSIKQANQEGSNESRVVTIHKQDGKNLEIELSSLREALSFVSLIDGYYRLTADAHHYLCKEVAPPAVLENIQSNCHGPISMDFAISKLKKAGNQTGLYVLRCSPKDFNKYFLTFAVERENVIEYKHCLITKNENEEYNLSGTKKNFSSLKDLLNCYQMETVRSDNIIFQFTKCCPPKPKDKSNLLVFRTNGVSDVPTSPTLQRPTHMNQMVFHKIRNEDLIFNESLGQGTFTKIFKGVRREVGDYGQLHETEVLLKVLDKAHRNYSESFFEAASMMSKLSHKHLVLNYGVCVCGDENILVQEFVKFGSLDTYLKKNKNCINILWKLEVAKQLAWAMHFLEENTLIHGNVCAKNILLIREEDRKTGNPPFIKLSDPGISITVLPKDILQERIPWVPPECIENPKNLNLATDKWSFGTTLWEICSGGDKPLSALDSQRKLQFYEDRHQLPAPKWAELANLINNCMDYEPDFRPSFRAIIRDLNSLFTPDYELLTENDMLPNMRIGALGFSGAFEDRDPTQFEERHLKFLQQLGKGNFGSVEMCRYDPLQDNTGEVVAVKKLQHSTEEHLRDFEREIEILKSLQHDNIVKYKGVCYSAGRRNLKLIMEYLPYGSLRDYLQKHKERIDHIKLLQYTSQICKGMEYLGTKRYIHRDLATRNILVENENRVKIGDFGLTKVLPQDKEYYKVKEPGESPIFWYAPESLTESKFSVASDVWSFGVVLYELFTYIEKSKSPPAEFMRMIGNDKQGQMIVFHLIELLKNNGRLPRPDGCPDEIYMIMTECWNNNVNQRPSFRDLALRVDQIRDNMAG

[2] = molecular target: panel of more than 300 wild-type and mutant kinases (313 kinase panel) (Homo sapiens, UniProt P22455, N535K); conditions: kinase FGFR4(N535K); compound at 1 μM
Sequence of panel of more than 300 wild-type and mutant kinases (313 kinase panel) (Homo sapiens, UniProt P22455, N535K) (P22455 22-802 N535K): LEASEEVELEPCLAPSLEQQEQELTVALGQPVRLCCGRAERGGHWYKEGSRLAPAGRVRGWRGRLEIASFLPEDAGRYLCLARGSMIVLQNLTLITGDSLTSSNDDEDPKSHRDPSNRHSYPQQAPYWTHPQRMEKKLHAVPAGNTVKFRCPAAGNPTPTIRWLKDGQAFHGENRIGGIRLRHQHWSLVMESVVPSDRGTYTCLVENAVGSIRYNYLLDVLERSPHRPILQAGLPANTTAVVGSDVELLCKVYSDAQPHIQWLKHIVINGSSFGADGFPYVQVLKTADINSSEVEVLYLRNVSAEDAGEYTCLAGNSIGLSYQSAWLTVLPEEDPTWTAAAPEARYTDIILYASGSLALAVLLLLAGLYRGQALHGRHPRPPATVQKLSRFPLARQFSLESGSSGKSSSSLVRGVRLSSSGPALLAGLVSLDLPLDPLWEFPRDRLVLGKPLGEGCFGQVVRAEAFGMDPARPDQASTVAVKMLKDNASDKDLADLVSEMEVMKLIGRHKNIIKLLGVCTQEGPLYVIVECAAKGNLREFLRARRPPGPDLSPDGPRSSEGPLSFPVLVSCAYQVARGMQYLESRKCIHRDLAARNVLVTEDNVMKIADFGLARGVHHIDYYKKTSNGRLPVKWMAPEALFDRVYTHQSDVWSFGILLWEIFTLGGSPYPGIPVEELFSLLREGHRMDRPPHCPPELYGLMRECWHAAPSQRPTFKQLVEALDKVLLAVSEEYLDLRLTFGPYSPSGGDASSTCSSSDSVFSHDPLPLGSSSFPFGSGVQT

[3] = molecular target: panel of more than 300 wild-type and mutant kinases (313 kinase panel) (Homo sapiens, UniProt P29597)
Sequence of panel of more than 300 wild-type and mutant kinases (313 kinase panel) (Homo sapiens, UniProt P29597) (P29597 whole entry, change not shown): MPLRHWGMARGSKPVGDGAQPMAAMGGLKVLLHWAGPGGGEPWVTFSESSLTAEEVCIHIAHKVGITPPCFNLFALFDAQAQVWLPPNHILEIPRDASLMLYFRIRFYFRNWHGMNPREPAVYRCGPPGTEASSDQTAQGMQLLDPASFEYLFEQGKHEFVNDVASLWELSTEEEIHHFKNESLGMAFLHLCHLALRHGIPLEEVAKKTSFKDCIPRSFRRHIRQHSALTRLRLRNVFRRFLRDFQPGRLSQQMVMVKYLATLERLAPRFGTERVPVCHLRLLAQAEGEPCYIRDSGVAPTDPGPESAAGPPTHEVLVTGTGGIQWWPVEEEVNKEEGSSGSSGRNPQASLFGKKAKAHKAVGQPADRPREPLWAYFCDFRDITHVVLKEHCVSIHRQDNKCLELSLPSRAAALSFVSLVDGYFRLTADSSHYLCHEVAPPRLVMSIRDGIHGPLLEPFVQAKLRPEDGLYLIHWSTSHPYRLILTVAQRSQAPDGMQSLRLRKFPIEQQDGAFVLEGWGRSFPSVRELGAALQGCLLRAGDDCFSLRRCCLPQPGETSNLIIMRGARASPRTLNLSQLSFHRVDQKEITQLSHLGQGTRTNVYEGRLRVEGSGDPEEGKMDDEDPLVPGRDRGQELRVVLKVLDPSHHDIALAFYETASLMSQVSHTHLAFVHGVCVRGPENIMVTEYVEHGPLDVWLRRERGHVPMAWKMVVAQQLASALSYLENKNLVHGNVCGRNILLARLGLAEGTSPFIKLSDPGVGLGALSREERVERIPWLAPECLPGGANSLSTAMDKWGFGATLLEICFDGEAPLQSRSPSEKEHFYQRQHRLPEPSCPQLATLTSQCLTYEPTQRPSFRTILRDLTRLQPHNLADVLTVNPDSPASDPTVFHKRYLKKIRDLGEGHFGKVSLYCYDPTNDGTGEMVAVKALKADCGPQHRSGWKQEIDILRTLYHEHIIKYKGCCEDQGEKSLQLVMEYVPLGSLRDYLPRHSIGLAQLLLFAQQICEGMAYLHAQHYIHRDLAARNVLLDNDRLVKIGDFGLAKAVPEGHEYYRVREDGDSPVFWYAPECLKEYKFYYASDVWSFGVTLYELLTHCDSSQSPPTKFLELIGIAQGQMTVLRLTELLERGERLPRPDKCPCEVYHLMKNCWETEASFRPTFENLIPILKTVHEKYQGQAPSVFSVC

[4] = molecular target: T1, panel of more than 300 wild-type and mutant kinases (313 kinase panel) (Homo sapiens, UniProt P33981)
T1 sequence (P33981 1-857): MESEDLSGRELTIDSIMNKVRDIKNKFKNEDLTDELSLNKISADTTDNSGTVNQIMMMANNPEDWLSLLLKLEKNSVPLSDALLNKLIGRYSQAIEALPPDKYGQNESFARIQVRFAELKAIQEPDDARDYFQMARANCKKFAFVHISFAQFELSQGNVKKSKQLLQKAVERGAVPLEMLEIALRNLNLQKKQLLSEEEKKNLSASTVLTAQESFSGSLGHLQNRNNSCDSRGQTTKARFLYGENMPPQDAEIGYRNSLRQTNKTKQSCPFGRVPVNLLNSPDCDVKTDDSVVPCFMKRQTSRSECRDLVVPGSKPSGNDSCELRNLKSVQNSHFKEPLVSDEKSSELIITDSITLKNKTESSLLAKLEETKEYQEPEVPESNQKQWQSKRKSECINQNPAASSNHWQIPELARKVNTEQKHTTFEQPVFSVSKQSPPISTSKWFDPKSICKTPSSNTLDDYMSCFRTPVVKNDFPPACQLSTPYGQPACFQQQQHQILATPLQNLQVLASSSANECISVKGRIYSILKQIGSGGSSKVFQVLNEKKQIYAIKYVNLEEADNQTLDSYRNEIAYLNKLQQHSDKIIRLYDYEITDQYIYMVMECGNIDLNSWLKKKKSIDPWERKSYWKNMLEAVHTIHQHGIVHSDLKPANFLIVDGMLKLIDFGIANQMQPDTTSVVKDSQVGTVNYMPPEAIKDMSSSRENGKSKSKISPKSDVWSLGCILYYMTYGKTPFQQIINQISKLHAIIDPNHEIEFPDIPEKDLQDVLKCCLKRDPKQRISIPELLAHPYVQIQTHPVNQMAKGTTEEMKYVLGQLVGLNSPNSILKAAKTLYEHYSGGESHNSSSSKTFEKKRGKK

[5] = molecular target: panel of more than 300 wild-type and mutant kinases (313 kinase panel) (Homo sapiens, UniProt P42684)
[6] = molecular target: panel of more than 300 wild-type and mutant kinases (313 kinase panel) (Homo sapiens, UniProt P51451)
Sequence of panel of more than 300 wild-type and mutant kinases (313 kinase panel) (Homo sapiens, UniProt P51451) (P51451 whole entry, change not shown): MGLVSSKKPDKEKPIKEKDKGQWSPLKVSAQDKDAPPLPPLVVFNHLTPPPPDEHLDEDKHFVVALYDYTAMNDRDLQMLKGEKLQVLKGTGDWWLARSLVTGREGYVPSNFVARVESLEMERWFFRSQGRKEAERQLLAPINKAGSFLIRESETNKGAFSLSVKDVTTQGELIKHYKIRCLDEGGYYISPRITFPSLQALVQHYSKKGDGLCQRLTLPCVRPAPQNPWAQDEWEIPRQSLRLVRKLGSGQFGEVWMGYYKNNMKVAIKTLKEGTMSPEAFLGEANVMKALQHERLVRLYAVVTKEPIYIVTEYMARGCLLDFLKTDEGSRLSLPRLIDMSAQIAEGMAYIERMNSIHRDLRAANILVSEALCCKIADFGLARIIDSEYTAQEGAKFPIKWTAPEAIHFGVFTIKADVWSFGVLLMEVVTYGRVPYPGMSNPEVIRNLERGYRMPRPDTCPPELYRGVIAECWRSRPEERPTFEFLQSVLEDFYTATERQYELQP

[7] = molecular target: panel of more than 300 wild-type and mutant kinases (313 kinase panel) (Homo sapiens, UniProt P78362)
[8] = molecular target: panel of more than 300 wild-type and mutant kinases (313 kinase panel) (Homo sapiens, UniProt Q13627)
[9] = molecular target: panel of more than 300 wild-type and mutant kinases (313 kinase panel) (Homo sapiens, UniProt Q14680)
[10] = molecular target: panel of more than 300 wild-type and mutant kinases (313 kinase panel) (Homo sapiens, UniProt Q15119)
[11] = molecular target: panel of more than 300 wild-type and mutant kinases (313 kinase panel) (Homo sapiens, UniProt Q9P1W9)
[12] = molecular target: panel of more than 300 wild-type and mutant kinases (313 kinase panel) (Homo sapiens, UniProt Q9P289)
Sequence of panel of more than 300 wild-type and mutant kinases (313 kinase panel) (Homo sapiens, UniProt Q9P289) (Q9P289 whole entry, change not shown): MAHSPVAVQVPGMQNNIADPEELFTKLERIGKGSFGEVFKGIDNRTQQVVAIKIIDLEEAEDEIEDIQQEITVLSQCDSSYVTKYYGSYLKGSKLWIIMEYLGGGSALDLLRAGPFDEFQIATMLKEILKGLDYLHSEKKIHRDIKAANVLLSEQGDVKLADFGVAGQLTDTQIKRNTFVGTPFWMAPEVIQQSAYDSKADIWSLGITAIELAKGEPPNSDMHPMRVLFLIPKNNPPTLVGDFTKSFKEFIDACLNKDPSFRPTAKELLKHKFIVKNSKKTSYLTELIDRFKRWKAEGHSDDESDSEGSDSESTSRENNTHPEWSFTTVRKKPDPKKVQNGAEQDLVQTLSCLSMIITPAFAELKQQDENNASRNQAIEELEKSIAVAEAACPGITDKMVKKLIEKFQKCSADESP

[13] = molecular target: panel of more than 300 wild-type and mutant kinases (313 kinase panel) (Homo sapiens, UniProt Q15349)
[14] = kinase DYRK1A, compound at 1 μM

Row | Structure (SMILES) | %-inhibition of JAK2 ([1]; kinase JAK2, compound at 1 μM) [%] | %-inhibition of FGFR4(N535K) [2] [%] | %-inhibition of TYK2 ([3]; kinase TYK2, compound at 1 μM) [%] | %-inhibition of TTK ([4]; kinase TTK, compound at 1 μM) [%] | %-inhibition, ARG ([5]; kinase ARG, 1 μM compound) [%] | %-inhibition, BLK ([6]; kinase BLK, 1 μM compound) [%] | %-inhibition of SRPK2 ([7]; kinase SRPK2, 1 μM) [%] | %-inhibition of DYRK1A [8, 14] [%] | %-inhibition of MELK ([9]; kinase MELK, compound at 1 μM) [%] | %-inhibition of PDHK2 ([10]; kinase PDHK2, 1 μM) [%] | %-inhibition of PIM2 ([11]; kinase PIM2, 1 μM) [%] | %-inhibition of MST4 ([12]; kinase MST4, 1 μM) [%] | %-inhibition of RSK3 ([13]; kinase RSK3, 1 μM) [%] | further results
1 | O=S(=O)(c1cccc2cnccc12)N1CCCNCC1 [fasudil] | 3.24 | 0.156 | 6 | -11 | -7 | -2.48 | -1.36 | 4.23 | 25 | -0.108 | -1.66 | 0.181 |  | 
2 | COc1cc2nccc(Oc3ccc(NC(=O)C4(C(=O)Nc5ccc(F)cc5)CC4)cc3)c2cc1OC [cabozantinib] | 29 | 39 | -3.68 | 2.75 | 29 | 100 | 0.2 | -5 | 54 | -1.54 | -12 | -1.74 | 0.355 | 
3 | C[C@@H](Oc1cc(-c2cnn(C3CCNCC3)c2)cnc1N)c1c(Cl)ccc(F)c1Cl [crizotinib] | 98 | 6.5 | 21 | -9 | 80 |  | -2.33 | -13 | 5.47 | -3.51 | -5.28 | 0.54 | 3.34 | 
4 | CCCS(=O)(=O)Nc1ccc(F)c(C(=O)c2c[nH]c3ncc(-c4ccc(Cl)cc4)cc23)c1F [vemurafenib] | 18 | 9 | 6 | -14 | 7 | 52 | -2.2 | -18 | 4 | 3.73 | -2 |  | -0.497 | %-inhibition of MST4 ([12]; 1 µM): -4.62%
5 | COc1cc2c(Nc3ccc(Br)cc3F)ncnc2cc1OCC1CCN(C)CC1 [vandetanib] | 0.942 | 81 | -7 | 3 | 94 | 89 | -9 | -11 | 1.19 | 0.22 | -6.49 | -2.22 | 9 | 
6 | C#Cc1cccc(Nc2ncnc3cc(OCCOC)c(OCCOC)cc23)c1 [erlotinib] |  |  |  |  |  |  |  |  |  |  |  |  |  | %-inhibition of JAK2 ([1]; 1 µM): 36%; %-inhibition of TYK2 ([3]; 1 µM): -2.7%; %-inhibition of TTK ([4]; 1 µM): 6.42%; %-inhibition, BLK ([6]; 1 µM): 31%; %-inhibition of SRPK2 ([7]; 1 µM): 4.47%; %-inhibition of DYRK1A [8]: 20%; %-inhibition of MELK ([9]; 1 µM): 2.69%; %-inhibition of PDHK2 ([10]; 1 µM): -4%; %-inhibition of RSK3 ([13]; 1 µM): 9%; %-inhibition of PIM2 ([11]; 1 µM): 9%; %-inhibition of MST4 ([12]; 1 µM): 7%
7 | CNC(=O)c1cc(Oc2ccc(NC(=O)Nc3ccc(Cl)c(C(F)(F)F)c3)c(F)c2)ccn1 [regorafenib] | 33 | 62 | -3.68 | 0.186 | 35 | 25 | 5 | -15 | -4.52 | 7 | -9 | 3.66 | 45 | 
8 | Cc1cn(-c2cc(NC(=O)c3ccc(C)c(Nc4nccc(-c5cccnc5)n4)c3)cc(C(F)(F)F)c2)cn1 [nilotinib] | 19 |  |  | -8 |  | 29 | -0.605 |  |  | 0.549 | 7 | 1.77 | 11 | %-inhibition of TYK2 ([3]; 1 µM): -1.71%; %-inhibition, ARG ([5]; 1 µM): 95%; %-inhibition of DYRK1A [8]: -6.52%; %-inhibition of MELK ([9]; 1 µM): 23%
9 | COc1cc(Nc2c(C#N)cnc3cc(OCCCN4CCN(C)CC4)c(OC)cc23)c(Cl)cc1Cl [bosutinib] | 64 | 30 | -3.37 |  |  | 84 | -9 |  |  | -3.29 | -12 |  |  | %-inhibition of RSK3 ([13]; 1 µM): 67%
